The test system of this experiment is respiratory syncytial virus Long strain. The experiment can be described thus: cell protection assay (RSV-induced cytopathic effects, MTT staining). Format: cell-based. The protocol:
For cell protection assays, HEp-2 (ATCC CCL 23) cells were seeded in 96 well microtiter plates at 1.5×10^4 cells/100 μL/well in DMEM (Dulbecco's Modified Eagle's Medium) supplemented with penicillin, streptomycin, glutamine, and 10% fetal bovine serum. After overnight incubation at 37° C., the culture medium was removed and cells were infected with respiratory syncytial virus Long strain at 5000 plaque forming units (PFU)/mL in a 100 μL volume of medium containing 2% fetal bovine serum. The compounds, 100 μL at appropriate dilution, were added to the cells one hour post infection. After incubation for 4 days at 37° C., the plates were stained with MTT solution (3-[4,5-dimethlythiazol-2-yl]-2,5-diphenyltetrazolium bromide) and incubated for 4 hours at 37° C. The media was aspirated from the cells and 100 μL/well of acidified isopropanol (per liter: 900 mL isopropanol, 100 mL Triton X100, and 4 mL conc. HCl) was added. Plates were incubated for 15 minutes at room temperature with shaking, and an optical density (OD 540) reading at 540 nanometer (nm) was obtained. The optical density reading is proportional to the number of viable cells. The increase in the number of viable cells reflects the protective, antiviral activity of the compound. […]
A general note: Cytopathic effects are the visible damage that an infection or toxin causes in cultured cells.

The molecule `NC(=O)c1ncn([C@@H]2O[C@H](CO)[C@@H](O)[C@H]2O)n1` [Ribavirin] showed a cell protection (at 2.5 μg/mL (corresponding to 10.2 μM), HEp-2 cells, RSV Long strain) of 100%. For the same molecule, the EC50 (human respiratory syncytial virus, HEp-2 cells infected with RSV Long strain, compound added one hour post infection, 4 days, MTT, read-out: EC50 (concentration that produces 50% cell protection)) was determined as 3000 nM.

Source of the values: patent publication US6919331B2, “Substituted 2-methyl-benzimidazole respiratory syncytial virus antiviral agents” (Bristol-Myers Squibb Company, priority 2001, dated 2005).
